Patent publication US5073571A, “Method of inhibiting virus” (priority 1989, dated 1991)

What was measured:
[1] = tested on: HIV-1; experiment: HIV-1 replication in H9 cells, p24 antigen ELISA; assay type: cell-based, HIV-1 strain HXB2gptX (in human H9 cells); details: 20-40 μM range
Procedure: Media was changed every other day. The effect of these compounds on virus production was determined by measuring the reverse transcriptase (RT) activity in samples of the cell culture supernatants. […] Negative controls consisted of no additions or 0.1ethanol. The results of duplicate assays were averaged. Panel B -Concentration-dependent effects of 13-oxamyristic acid on HIV-1 replication as measured by RT activity (percent of untreated control) and the presence of p24 antigen (ng/ml determined by ELISA). Error bars indicate the S.E.M. of assays done in triplicate. […] Panel D - Toxicity of 13-oxamyristic acid determined by viable cell count (trypan blue exclusion), as well as by [^3 H]thymidine and [^3 H]leucine labeling (see under Materials and Methods, Example 16, below). The incorporation of these radiolabeled compounds was determined in the total cell population contained in a well after 10 days of treatment with the analog. […]
Assay for HIV-1 Replication. […] The titer of the virus stock was determined by serial dilution using syncytia formation and reverse transcriptase activity (see below) as a measure of infectivity in H9 cells. […]
Virus Assays. Virus was quantitated using supernatant solutions of cells harvested on day 8 (m.o.i.=0.01) or day 10 (m.o.i.=0.001) of treatment. […]

[2] = tested on: H9 cells; experiment: Toxicity in HIV-1 infected H9 cells: viable cell count by trypan blue exclusion; assay type: cell-based, human
Procedure: (§1) Media was changed every other day. The effect of these compounds on virus production was determined by measuring the reverse transcriptase (RT) activity in samples of the cell culture supernatants. […] Negative controls consisted of no additions or 0.1ethanol. The results of duplicate assays were averaged. Panel B -Concentration-dependent effects of 13-oxamyristic acid on HIV-1 replication as measured by RT activity (percent of untreated control) and the presence of p24 antigen (ng/ml determined by ELISA). Error bars indicate the S.E.M. of assays done in triplicate. Panel C - The effect of 13-oxamyristic acid on syncytia formation using an arbitrary scale described under Materials and Methods, Example 16, below. Panel D - Toxicity of 13-oxamyristic acid determined by viable cell count (trypan blue exclusion), as well as by [^3 H]thymidine and [^3 H]leucine labeling (see under Materials and Methods, Example 16, below). The incorporation of these radiolabeled compounds was determined in the total cell population contained in a well after 10 days of treatment with the analog. Duplicate assays were performed and the results averaged.
Toxicity Studies. These analyses were conducted for both assay systems. Cell survival was determined by trypan-blue exclusion. The number of unstained cells/mL in the treated cultures was divided by the number of unstained cells/mL in the untreated control cultures and expressed as percent control. Protein synthesis was measured at the end of the treatment periods by metabolic labeling for 4 hrs with L-[4,5^3 H(N)]-leucine (2 μCi/mL media, specific activity =140 Ci/mmol). All cells contained in a given well of a 24 well plate were recovered by scraping, the protein precipitated by TCA (final concentration =10%) and the solution subsequently incubated at 100° C. for 5 min prior to passage over glass fiber filters (Whatman). In the case of the H-9 assay, treated or untreated cells were pulsed labeled at the conclusion of the 10 day incubation. […] DNA synthesis was assessed on day 10 of the H9 assay. […]

[3] = tested on: HIV-1; experiment: Syncytia assay in HIV-1 infected H9 cells; assay type: cell-based, HIV-1 strain HXB2gptX (in human H9 cells); details: H9 cells
Procedure: as §1
Assay for HIV-1 Replication. The human T-lymphoid cell line, H9, was provided by R. D. Gallo (NIH) and maintained in RPMI-1640 medium supplemented with 10% fetal bovine serum, 100 IU/mL penicillin, 100 μg/mL streptomycin an 2 mM L-glutamine. […] The titer of the virus stock was determined by serial dilution using syncytia formation and reverse transcriptase activity (see below) as a measure of infectivity in H9 cells. […]
Syncytia Assay. The number of syncytia in each well was determined by microscopic examination on days 4-6 (infected, untreated control cultures), 8 and 10 (analog or decanoate treated cultures). The average number of multi-nucleated giant cells counted per 10 low-power fields (LPF =40 times magnification) was assigned to an arbitrary syncytia scale: 0=<1/LPF, 1+=1-4/LPF, 2+=5-7/LPF, 3+= 8-10/LPF, 4+=>10/LPF. By this criteria uninfected, control cells had zero synctia, and infected, untreated H9 cells were consistently scored as 4+.

## COCCCCCCCCCCCC(=O)O [13-oxamyristate, 12-(Methoxy)dodecanoic acid]
[1]
  reduction in virus replication (p24 ELISA): greater than 90%
[2]; 20 to 40 μM, 10 day treatment
  viable cell count in HIV-1 infected H9 cultures relative to untreated controls: equivalent to that of untreated controls
[2]; 10 day treatment, trypan blue exclusion
  viable cell count in HIV-1 infected H9 cultures: an increase in viable cell count was observed
[2]; HIV-1 infected H9 cells, suggested by viable cell number
  direct toxicity to the cells: not directly toxic to the cells
[3]; 40-80 μM vs 5 μM AZT
  reduction in syncytia compared with AZT: comparable to that obtained with 5 μM AZT
[3]; FIG. 1C
  syncytia reduction compared with RT and p24 assays: paralleled the results of the reverse transcriptase and p24 ELISA assays
